According to US20230117324A1, “OXAZINE MONOACYLGLYCEROL LIPASE (MAGL) INHIBITORS” (Hoffmann-La Roche Inc., priority 2018, published 2023):

Biological target: T1, MAGL (recombinant wild-type) (Homo sapiens, UniProt Q99685)
T1 sequence (Q99685 1-303): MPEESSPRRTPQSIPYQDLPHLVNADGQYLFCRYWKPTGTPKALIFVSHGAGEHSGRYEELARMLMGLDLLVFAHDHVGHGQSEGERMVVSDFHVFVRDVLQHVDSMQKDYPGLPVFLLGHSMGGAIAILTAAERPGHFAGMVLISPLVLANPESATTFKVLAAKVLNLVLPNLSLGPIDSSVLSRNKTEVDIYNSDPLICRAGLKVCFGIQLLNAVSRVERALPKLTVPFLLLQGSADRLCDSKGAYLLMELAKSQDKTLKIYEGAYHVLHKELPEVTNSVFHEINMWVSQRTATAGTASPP
Assay: MAGL inhibition, 4-NPA assay (hydrolysis of 4-nitrophenylacetate, absorbance at 405 nm)
Type: biochemical
Conditions: 4-NPA assay (footnote [a]: values not marked [b])
Experimental: Compounds were profiled for MAGL inhibitory activity by measuring the enzymatic activity of MAGL by following the hydrolysis of 4-nitrophenylacetate resulting in 4-nitrophenol, which absorbs at 405-412 nm (G. G. Muccioli, G. Labar, D. M. Lambert, Chem. Bio. Chem. 2008, 9, 2704-2710). This assay is hereinafter abbreviated “4-NPA assay”.
The assay was carried out in 384 well assay plates (black with clear bottom, non-binding surface treated, Corning Ref. 3655) in a total volume of 40 μL. Compound dilutions were made in 100% DMSO (VWR Chemicals 23500.297) in a polypropylene plate in 3-fold dilution steps to give a final concentration range in the assay from 25 μM to 1.7 nM. 1 μL compound dilutions (100% DMSO) were added to 19 μL MAGL (recombinant wild-type) in assay buffer (50 mM TRIS (GIBCO, 15567-027), 1 mM EDTA (Fluka, 03690-100 mL)). The plate was shaked for 1 min at 2000 rpm (Variomag Teleshake) and then incubated for 15 min at RT. To start the reaction, 20 μL 4-Nitrophenlyacetate (Sigma N-8130) in assay buffer with 6% EtOH was added. The final concentrations in the assay were 1 nM MAGL and 300 μM 4-Nitrophenylacetate. After shaking (1 min, 2000 rpm) and 5 min incubation at RT, the absorbance at 405 nm was measured for a first time (Molecular Devices, SpectraMax Paradigm). A second measurement was then done after incubation for 80 min at RT. From the two measurements, the slope was calculated by subtracting the first from the second measurement.

In order of rising IC50:
1. C[C@@H](Oc1ccc(F)cc1Cl)C1CCN(C(=O)N2CC[C@@H]3OCC(=O)N[C@@H]3C2)CC1 (single isomer, unassigned) [Example 34, (+) or (−)-cis-6-(4-((R or S)-1-(2-Chloro-4-fluorophenoxy)ethyl)piperidine-1-carbonyl)hexahydro-2H-pyrido[4,3-b][1,4]oxazin-3(4H)-one]  1 nM
2. O=C1CO[C@H]2CCN(C(=O)N3CCC(c4cn(C5CC5)c5ccc(Cl)cc45)CC3)C[C@H]2N1 (single isomer, unassigned) [Example 19, (+)-or (−)-cis-6-(4-(5-Chloro-1-cyclopropyl-1H-indol-3-yl)piperidine-1-carbonyl)hexahydro-2H-pyrido[4,3-b][1,4]oxazin-3(4H)-one]  1 nM
3. CC(Oc1ccc(F)cc1Cl)C1CCN(C(=O)N2CC[C@@H]3OCC(=O)N[C@@H]3C2)CC1 (mixture of isomers) [Example 28, rac-(4aR,8aS)-6-(4-(1-(2-Chloro-4-fluorophenoxy)ethyl)piperidine-1-carbonyl)hexahydro-2H-pyrido[4,3-b][1,4]oxazin-3(4H)-one]  2 nM
4. O=C1CO[C@H]2CCN(C(=O)N3CCC(c4cn(C5COC5)c5ccc(Cl)cc45)CC3)C[C@H]2N1 (relative stereo) [Example 22, (+)- or (−)-cis-6-(4-(5-Chloro-1-(oxetan-3-yl)-1H-indol-3-yl)piperidine-1-carbonyl)hexahydro-2H-pyrido[4,3-b][1,4]oxazin-3(4H)-one]  2 nM
5. O=C1CO[C@H]2CCN(C(=O)N3CCC(c4cn(CCO)c5ccc(Cl)cc45)CC3)C[C@H]2N1 (single isomer, unassigned) [Example 25, (+)- or (−)-cis-6-(4-(5-Chloro-1-(2-hydroxyethyl)-1H-indol-3-yl)piperidine-1-carbonyl)hexahydro-2H-pyrido[4,3-b][1,4]oxazin-3(4H)-one]  2 nM
6. O=C1CO[C@H]2CCN(C(=O)N3CCC(c4cn(CC5COC5)c5ccc(Cl)cc45)CC3)C[C@H]2N1 (single isomer, unassigned) [Example 23, (+)-or (−)-cis-6-(4-(5-Chloro-1-(oxetan-3-ylmethyl)-1H-indol-3-yl)piperidine-1-carbonyl)hexahydro-2H-pyrido[4,3-b][1,4]oxazin-3(4H)-one]  3 nM
7. O=C1CO[C@H]2CCN(C(=O)N3CCC(C(c4ccccc4)c4ccccc4)CC3)C[C@H]2N1 (racemic) [Example 1, rac-(4aR,8aS)-6-(4-Benzhydrylpiperidine-1-carbonyl)-4,4a,5,7,8,8a-hexahydropyrido[4,3-b][1,4]oxazin-3-one]  3 nM
8. CC(c1ccc(C(F)(F)F)cc1)C1CCN(C(=O)N2CC[C@@H]3OCC(=O)N[C@@H]3C2)CC1 (mixture of isomers) [Example 27, (4aR,8aS)-6-(4-(1-(4-(Trifluoromethyl)phenyl)ethyl)piperidine-1-carbonyl)hexahydro-2H-pyrido[4,3-b][1,4]oxazin-3(4H)-one]  5 nM
9. O=C1CO[C@H]2CCN(C(=O)N3CCC(C4c5ccccc5-c5ccccc54)CC3)C[C@H]2N1 (racemic) [Example 4, rac-(4aR,8aS)-6-(4-(9H-Fluoren-9-yl)piperidine-1-carbonyl)hexahydro-2H-pyrido[4,3-b][1,4]oxazin-3(4H)-one]  5 nM
10. O=C1CO[C@H]2CCN(C(=O)N3CCN([C@H](c4ccccc4)c4ccc(Cl)cc4)CC3)C[C@H]2N1 (racemic) [Example 10, rac-(4aR,8aS)-6-(4-(rac-(4-Chlorophenyl)(phenyl)methyl)piperazine-1-carbonyl)hexahydro-2H-pyrido[4,3-b][1,4]oxazin-3(4H)-one]  5 nM
11. O=C1CO[C@H]2CCN(C(=O)N3CCN(C(c4ccc(F)cc4)c4ccc(F)cc4)CC3)C[C@H]2N1 (relative stereo) [Example 11, (+)-cis-6-(4-(bis(4-Fluorophenyl)methyl)piperazine-1-carbonyl)hexahydro-2H-pyrido[4,3-b][1,4]oxazin-3(4H)-one]  8 nM
12. O=C1CO[C@H]2CCN(C(=O)N3CCN(C(c4ccc(F)cc4)c4ccc(F)cc4)CC3)C[C@H]2N1 (racemic) [Example 12, rac-(4aR,8aS)-6-[4-[bis(4-Fluorophenyl)methyl]piperazine-1-carbonyl]-4,4a,5,7,8,8a-hexahydropyrido[4,3-b][1,4]oxazin-3-one]  12 nM
13. O=C1CO[C@H]2CCN(C(=O)N3CCC(C(F)(F)c4ccc(C(F)(F)F)cc4)CC3)C[C@H]2N1 [Example 30, (4aR,8aS)-6-(4-(Difluoro(4-(trifluoromethyl)phenyl)methyl)piperidine-1-carbonyl)hexahydro-2H-pyrido[4,3-b][1,4]oxazin-3(4H)-one]  25 nM
14. O=C1CO[C@H]2CCN(C(=O)N3CCC(C(CCO)c4ccc(F)cc4)CC3)C[C@H]2N1 (mixture of isomers) [Example 26, rac-cis-6-(4-(1-(4-Fluorophenyl)-3-hydroxypropyl)piperidine-1-carbonyl)hexahydro-2H-pyrido[4,3-b][1,4]oxazin-3(4H)-one]  33 nM
15. C[C@H](Oc1ccc(F)cc1Cl)C1CCN(C(=O)N2CC[C@@H]3OCC(=O)N[C@@H]3C2)CC1 (single isomer, unassigned) [Example 33, (+) or (−)-cis-6-(4-((S or R)-1-(2-Chloro-4-fluorophenoxy)ethyl)piperidine-1-carbonyl)hexahydro-2H-pyrido[4,3-b][1,4]oxazin-3(4H)-one]  51 nM
16. O=C1CO[C@@H]2CCN(C(=O)N3CCC(C(c4ccc(F)cc4)c4ccc(F)cc4)CC3)C[C@@H]2N1 (single isomer, unassigned) [Example 36, (+) or (−)-cis-6-(4-(Bis(4-fluorophenyl)methyl)piperidine-1-carbonyl)hexahydro-2H-pyrido[4,3-b][1,4]oxazin-3(4H)-one]  85 nM
17. O=C1CO[C@@H]2CCN(C(=O)N3CCN(C(c4ccc(F)cc4)c4ccc(F)cc4)CC3)C[C@@H]2N1 (stereo in doubt) [Example 13, (−)-(cis)-6-(4-(bis(4-Fluorophenyl)methyl)piperazine-1-carbonyl)hexahydro-2H-pyrido[4,3-b][1,4]oxazin-3(4H)-one]  88 nM
18. Cn1nc(C2CCN(C(=O)N3CC[C@@H]4OCC(=O)N[C@@H]4C3)CC2)c2ccc(Cl)cc21 (single isomer, unassigned) [Example 42, (+) or (−)-cis-6-(4-(6-Chloro-1-methyl-1H-indazol-3-yl)piperidine-1-carbonyl)hexahydro-2H-pyrido[4,3-b][1,4]oxazin-3(4H)-one]  103 nM
19. O=C1CO[C@H]2CCN(C(=O)N3CCN(c4c[nH]c5ccc(Cl)cc45)CC3)C[C@H]2N1 (racemic) [Example 14, rac-(4aR,8aS)-6-(4-(5-Chloro-1H-indol-3-yl)piperazine-1-carbonyl)hexahydro-2H-pyrido[4,3-b][1,4]oxazin-3(4H)-one]  133 nM
20. O=C1CO[C@H]2CCN(C(=O)N3CCC(c4noc5ccc(F)cc45)CC3)C[C@H]2N1 (racemic) [Example 9, rac-(4aR,8aS)-6-(4-(5-Fluorobenzo[d]isoxazol-3-yl)piperidine-1-carbonyl)hexahydro-2H-pyrido[4,3-b][1,4]oxazin-3(4H)-one]  644 nM
21. O=C1CO[C@H]2CCN(C(=O)N3CCC(c4ccc(OC(F)(F)F)cn4)CC3)C[C@H]2N1 (single isomer, unassigned) [Example 38, (+) or (−)-cis-6-(4-(5-(Trifluoromethoxy)pyridin-2-yl)piperidine-1-carbonyl)hexahydro-2H-pyrido[4,3-b][1,4]oxazin-3(4H)-one]  644 nM
22. O=C1CO[C@H]2CCN(C(=O)N3CC(C(c4ccc(F)cc4)c4ccc(F)cc4)C3)C[C@H]2N1 [Example 82, (4aR,8aS)-6-(3-(bis(4-Fluorophenyl)methyl)azetidine-1-carbonyl)hexahydro-2H-pyrido[4,3-b][1,4]oxazin-3(4H)-one]  1200 nM
23. N#C/C(=C\N1CCN(C(=O)N2CC[C@@H]3OCC(=O)N[C@@H]3C2)CC1)c1ccccc1 (racemic) [Example 18, (E/Z)-3-[4-[rac-(4aS,8aR)-3-oxo-4,4a,5,7,8,8a-hexahydropyrido[4,3-b][1,4]oxazine-6-carbonyl]piperazin-1-yl]-2-phenylprop-2-enenitrile]  2100 nM
24. COc1cncc(C2CCN(C(=O)N3CC[C@@H]4OCC(=O)N[C@@H]4C3)CC2)c1 (single isomer, unassigned) [Example 35, (+) or (−)-cis-6-(4-(5-Methoxypyridin-3-yl)piperidine-1-carbonyl)hexahydro-2H-pyrido[4,3-b][1,4]oxazin-3(4H)-one]  2400 nM
